Where a SMILES comes first, the peptide text is derived from it. Bridges are numbered along the chain shown (N, C = ends). [ ]: non-standard residue; d: D form. R8 = C=CCCCCCC[C@@](C)(N)C(=O)O; S5 = C=CCCC[C@](C)(N)C(=O)O
Assays:
[1] = tested on: EGFR T790M mutated H1975 lung adenocarcinoma cells; assay: Cell viability assay (MTT), H1975; assay type: cell-based; conditions: H1975 (HER1 T790M), 10 µM, 72 h
Description: (§1) 1000–3000 cells were plated in 96-well plates (Falcon; Corning, NY) and allowed to adhere for 24–48 h prior to therapeutic introduction. Compounds were added and incubated on cells for 3 days in serum-containing media, followed by 2 h treatment with MTT (Sigma M5655) with the resulting formazan solubilized in DMSO. Absorbance was read at 540 nm by plate reader (uQuant, Bio-Tek Instruments). P-values were calculated from a one-way ANOVA.
Fig. 3 SAH5-EJ1 inhibits growth and prolongs survival in PDX models of lung cancer. a, b Cell viability assays performed in A549 or EGFR T790M mutated H1975 lung adenocarcinoma cells over 3 days comparing treatment with Sapitinib (blue lines) to SAH5-EJ1 (red lines). Solid lines represent 24 h; dashed lines represent 72 h. Data shown represent mean ± percent difference of assays performed in quadruplicate. c Reduction in tumor burden in Erlotinib-resistant lung cancer PDX mouse model TM00784 with various doses of intravenous SAH5-EJ1. Control represents water as a vehicle control. *p < 0.05 (Control vs 1 µg/g); **p < 0.01 (Control vs 1 µg/g and vs 10 µg/g). d Kaplan–Meier curve of lung PDX mouse model treated with control (blue line) or either 1 or 10 µg/g SAH5-EJ1 (green line and red line, respectively). Data shown represent mean. N = 6 for all groups

[2] = tested on: SUM149 inflammatory breast cancer cells; assay type: cell-based; conditions: SUM149, 10 µM, 3 days
Description: as §1
Fig. 4 SAH5-EJ1 effectively treats models of basal and inflammatory breast cancers while increasing survival. a Changes in tumor burden in breast cancer PDX mouse model TM01278 with various concentrations of intravenous SAH5-EJ1. Control represents water as a vehicle control. *p < 0.05 (Control vs 1 µg/g); **p < 0.01 (Control vs 1 µg/g and vs 10 µg/g). N = 6 for each condition. b Kaplan–Meier curve of breast PDX mouse model treated with control (blue) or either 1 or 10 µg/g SAH5-EJ1 (green and red, respectively) (red asterisks indicate time point at which mice could no longer receive injections due to site toxicity). Data shown represent mean. N = 6 for all groups. c Cell viability assay performed in SUM149 cells over 3 days comparing treatment with Sapitinib (blue) to SAH5-EJ1 (red) and SAH5-CP (grey). Solid lines represent 24 h; dashed lines represent 72 h. Data shown represent mean ± percent difference of assays performed in triplicate. d Kaplan–Meier curve of inflammatory breast cancer SUM149-injected mouse model treated with injected control (water) (blue) or either 0.5 or 5 µg/g SAH5-EJ1 (green and red, respectively). Data shown represent mean. N = 8 for all groups. e Changes in tumor burden in SUM149-generated tumors with various doses of SAH5-EJ1. Control represents water (blue). Arrow indicates transition from intravenous (IV) SAH5-EJ1 injections to intraperitoneal (IP) on day 66. **p < 0.01 (Control vs 0.5 µg/g and vs 5 µg/g). Data shown represent mean ± standard deviation. N = 8 for all groups. f Images of mouse tumors taken on Day 116. Arrowheads indicate tumor site. Representative images selected. […]

In the case of `CC[C@H](C)[C@H](NC(=O)[C@H](Cc1c[nH]cn1)NC(=O)[C@H](CCCNC(=N)N)NC(=O)[C@H](CCCNC(=N)N)NC(=O)[C@H](CCCNC(=N)N)NC(=O)[C@H](CCSC)NC(=O)[C@H](Cc1ccccc1)NC(=O)[C@H](C)NC(=O)[C@H](CCCNC(=N)N)NC(=O)[C@H](C)NC(=O)[C@H](CCC(N)=O)NC(=O)[C@H](CCCNC(=N)N)NC(=O)[C@H](C)NC(=O)[C@H](C)NC(=O)[C@H](C)NC(=O)[C@H](CCCNC(=N)N)NC(=O)[C@H](C)NC(=O)[C@@H](N)Cc1ccc(O)cc1)C(=O)N[C@H](C(=O)N[C@@H](CCCNC(=N)N)C(=O)N[C@@H](CCCCN)C(=O)N[C@@H](CCCNC(=N)N)C(=O)N[C@]1(C)CCCCCCC=CCCC[C@@](C)(C(=O)N[C@@H](CCCNC(=N)N)C(=O)N[C@@H](CCC(=O)O)C(N)=O)NC(=O)[C@H](CCC(N)=O)NC(=O)[C@H](CC(C)C)NC(=O)[C@H](CC(C)C)NC(=O)[C@H](CCCNC(=N)N)NC(=O)[C@H](CCCNC(=N)N)NC(=O)[C@H](CC(C)C)NC1=O)C(C)C` [SAH5-EJ1] (H-YARAAARQARAFMRRRHIVRKR[R8]LRRLLQ[S5]RE-NH2; staple 23-30), the cell death [1] is reported as 100% and the cell viability [2] is reported as “zero”.

— publication PMC6582486, “Stapled EGFR peptide reduces inflammatory breast cancer and inhibits additional HER-driven models of cancer” (Journal of Translational Medicine, 2019)
